Marks after values point to notes of the source that are not given here. Bridges are numbered along the chain shown (N, C = ends). Where no end group is shown, it is not given here. [ ]: non-standard residue; d: D form. MP = not defined here
Columns and labels:
p62 = p62 degradation assay (p62/actin immunoblot);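 as to Activity (μM) 10, p62/actin assay activity: HeLa cells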;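 as to Activity (μM) 100, p62/actin assay activity: HeLa cells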;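 as to Activity (μM) 30, p62/actin assay activity: HeLa cells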;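 as to Activity (μM) 50, p62/actin assay activity: HeLa cells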; assay type: cell-based; design: key: −: activity not reported; 0: decreased vs. WT; +: similar to WT; ++: modest increase vs. WT; +++: significant increase vs. WT; details: first symbol; for Activity (μM) 50, p62/actin assay activity: 50 μM; for Activity (μM) 100, p62/actin assay activity: 100 μM; for Activity (μM) 10, p62/actin assay activity: 10 μM; for Activity (μM) 30, p62/actin assay activity: 30 μM; for Activity (μM) 10, starred cell, p62/actin assay activity: Table 8, 10 μM marked * (footnote: data taken at 20 instead of 30 μM)
Procedure: (§1) Cells were treated with peptide in OPTI-MEM (Thermo Scientific) acidified with 0.15% (v/v) 6N HCl for 3 hour. Cells were rinsed with Dulbecco's phosphate buffered saline (PBS) and lysed in lysis buffer (20 mM HEPES, 150 mM NaCl, 1 mM EDTA, 1% Triton X-100, protease inhibitor cocktail (Roche) on ice for 1 hour. Cell lysates were centrifuged at 16,000 g for 10 min at 4° C. and analyzed by SDS-PAGE and transferred to PVDF membranes. The membranes were blocked 5% non-fat dry milk (NFDM) in PBST (PBS+0.05% Tween-20) for 1 hour, then incubated overnight at 4° C. with primary antibody in 5% NFDM in PBST. The blots were washed with PBST and incubated with HRP-conjugated secondary antibodies diluted in 5% NFDM in PBST for 1 hour at room temperature. Membranes were washed with PBST and visualized with SuperSignal West Pico Chemiluminescent Substrate (Thermo Scientific). Semi-quantitative results were obtained by noting the lowest concentration at which both p62 degradation and LC3-I to LC3-II conversion were observed.
(§2) Compounds 1-10 were evaluated using the assays described in Examples 4 and 5. Activity for each compound was measured in the p62 degradation assay and the LC3 marker assay as described herein. The activity at each concentration of peptide is given as, for example, (0/+) where 0 would be the p62/actin assay activity and + would be the LC3 assay activity.

LC3 = LC3 marker assay (LC3-I to LC3-II conversion immunoblot);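 as to Activity (μM) 10, LC3 assay activity: HeLa cells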;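 as to Activity (μM) 100, LC3 assay activity: HeLa cells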;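 as to Activity (μM) 30, LC3 assay activity: HeLa cells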;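 as to Activity (μM) 50, LC3 assay activity: HeLa cells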; assay type: cell-based; design: key: −: activity not reported; 0: decreased vs. WT; +: similar to WT; ++: modest increase vs. WT; +++: significant increase vs. WT; details: second symbol; for Activity (μM) 50, LC3 assay activity: 50 μM; for Activity (μM) 100, LC3 assay activity: 100 μM; for Activity (μM) 10, LC3 assay activity: 10 μM; for Activity (μM) 30, LC3 assay activity: 30 μM; for Activity (μM) 10, starred cell, LC3 assay activity: Table 8, 10 μM marked * (footnote: data taken at 20 instead of 30 μM)
Procedure: as §1, §2

[1] = 5 μM, Table 8, control compound T25

Sequence | Activity (μM) 50, p62/actin assay activity (p62; Table 8, control compound T25) | Activity (μM) 100, p62/actin assay activity (p62; Table 8, control compound T25) | Activity (μM) 50, LC3 assay activity (LC3; Table 8, control compound T25) | Activity (μM) 100, LC3 assay activity (LC3; Table 8, control compound T25) | Activity (μM) 30, p62/actin assay activity (p62; Table 8, control compound T25) | Activity (μM) 30, LC3 assay activity (LC3; Table 8, control compound T25) | further results
VCNATCHIRIWH (H-V[dC]NAT[dC]HIRIWH; linker 2-6 via MP (inferred); not fully specified (C-terminus); reading uncertain) [Compound 37] | 0/0 | 0/0 | 0/0 | 0/0 | – | – | –
VWNATCHIWC [Compound 65] | 0/0 | – | 0/0 | – | – | – | –
VCNACFHIWH [Compound 54] | ++ | – | 0 | – | ++ | 0 | Activity (μM) 10, p62/actin assay activity (p62; Table 8, control compound T25): +; Activity (μM) 10, LC3 assay activity (LC3; Table 8, control compound T25): 0
VCNATCHIWH [Compound 44] | 0/0 | 0/0 | 0/0 | 0/0 | – | – | –
VCNATCHIWH [Compound 28] | – | – | – | – | – | – | Activity (μM) 30, p62/actin assay activity (p62; Table 7, control compound T25): 0/0; Activity (μM) 50, p62/actin assay activity (p62; Table 7, control compound T25): 0/0; Activity (μM) 100, p62/actin assay activity (p62; Table 7, control compound T25): +++; Activity (μM) 30, LC3 assay activity (LC3; Table 7, control compound T25): 0/0; Activity (μM) 50, LC3 assay activity (LC3; Table 7, control compound T25): 0/0; Activity (μM) 100, LC3 assay activity (LC3; Table 7, control compound T25): 0
VCNACFHIWH [Compound 70] | 0 | – | + | – | 0/0 | 0/0 | Activity (μM) 10, starred cell, p62/actin assay activity (p62): 0/0*; Activity (μM) 10, starred cell, LC3 assay activity (LC3): 0/0*
VCNATCHIWH [Compound 24] | – | – | – | – | – | – | Activity (μM) 10, p62/actin assay activity (p62; Table 6, control DMSO): ++/++; Activity (μM) 30, p62/actin assay activity (p62; Table 6, control DMSO): +++; Activity (μM) 50, p62/actin assay activity (p62; Table 6, control DMSO): +++; Activity (μM) 100, p62/actin assay activity (p62; Table 6, control DMSO): +++; Activity (μM) 10, LC3 assay activity (LC3; Table 6, control DMSO): ++/++; Activity (μM) 30, LC3 assay activity (LC3; Table 6, control DMSO): ++; Activity (μM) 50, LC3 assay activity (LC3; Table 6, control DMSO): ++; Activity (μM) 100, LC3 assay activity (LC3; Table 6, control DMSO): ++
VCNATCHIWH [Compound 30] | 0/0 | 0/0 | 0/0 | 0/0 | 0/0 | 0/0 | Activity (μM) 30, p62/actin assay activity (p62; Table 7, control compound T25): 0/0; Activity (μM) 50, p62/actin assay activity (p62; Table 7, control compound T25): 0/0; Activity (μM) 100, p62/actin assay activity (p62; Table 7, control compound T25): +; Activity (μM) 10, starred cell, p62/actin assay activity (p62): 0/0*; Activity (μM) 30, LC3 assay activity (LC3; Table 7, control compound T25): 0/0; Activity (μM) 50, LC3 assay activity (LC3; Table 7, control compound T25): 0/0; Activity (μM) 100, LC3 assay activity (LC3; Table 7, control compound T25): 0; Activity (μM) 10, starred cell, LC3 assay activity (LC3): 0/0*
VWNATCHIWC [Compound 59] | – | – | – | – | 0/0 | 0/0 | Activity (μM) 5, p62/actin assay activity (p62; [1]): 0/0; Activity (μM) 10, p62/actin assay activity (p62; Table 8, control compound T25): 0/0; Activity (μM) 5, LC3 assay activity (LC3; [1]): 0/0; Activity (μM) 10, LC3 assay activity (LC3; Table 8, control compound T25): 0/0
VCNATCHIWH [Compound 51] | +++/+++ | +++/+++ | +++/+++ | +++/+++ | – | – | –
VCNACFHIWH [Compound 69] | ++ | – | +++ | – | 0/0 | 0/0 | Activity (μM) 10, starred cell, p62/actin assay activity (p62): 0/0*; Activity (μM) 10, starred cell, LC3 assay activity (LC3): 0/0*
VCNACFHIWH [Compound 52] | 0 | 0 | + | + | – | – | –

From patent publication US10993983B2, “Cyclic peptide epitopes and small-molecule mimics for inducing autophagy” (TRUSTEES OF TUFTS COLLEGE, priority 2016, dated 2021)
